Consider 88 compounds from PubChem BioAssay AID624339 (Sanford-Burnham Center for Chemical Genomics, 2012).

Activity calls are given as the source filed them. How the calls were made is not given here.

One series deals with PAMPA artificial membrane permeability, pH 7.4. Kind of series: passive permeability across artificial membrane, ADME assay, biophysical (AID 624339). Particulars: at 100 µM; hits give high values.
For the compound `Brc1ccc2c(c1)CN1CCCC1=N2`, the permeability Pe was 786 10-6 cm/s.
Turning to `O=C1C2CC=CCC2C(=O)N1c1n[nH]c(-c2ccccc2)n1` (stereo not drawn), the permeability Pe is 63 10-6 cm/s.
In the case of `Cc1cc(-c2nnc3n2CCCCC3)c(C)n1-c1ccccc1`, the permeability Pe is 393 10-6 cm/s.
Consider `O=c1c2ccccc2[se]n1-c1ccccc1`, for which the permeability Pe is 448 10-6 cm/s.
Regarding `O=C(O)CCC(NS(=O)(=O)c1ccc(-c2ccccc2)cc1)C(=O)O` (stereo not drawn), the permeability Pe is < 0.4 10-6 cm/s (inactive).
With `C=CCn1c(SCC(=O)c2ccc(O)c(O)c2)nnc1-c1ccccc1OC`, the permeability Pe was 88 10-6 cm/s.
Still for that read-out and setting: next, `Cn1nnnc1Sc1ncnc2scc(-c3ccccc3)c12`: 973 10-6 cm/s; `O=C(c1ccccn1)N(Cc1cccs1)C1(C(=O)NC2CCCCC2)CCCCC1`: 1580 10-6 cm/s; `O=c1[nH]c2c(s1)C(c1cccnc1)C1C3CCC(C3)C1S2` (stereo not drawn): 830 10-6 cm/s.
On to `O=c1c(O)c(-c2cc(O)c(O)c(O)c2)oc2cc(O)cc(O)c12`, for which the permeability Pe was 1.7 10-6 cm/s (inactive).
Take `Cc1ccc(NS(=O)(=O)c2ccc3c(c2)CCC(=O)N3)cc1C`: the permeability Pe is 622 10-6 cm/s.
Same read-out and setting: the value for `CS(=O)(=O)c1ccc(C(=O)OCC(=O)NC23CC4CC(CC(C4)C2)C3)cc1[N+](=O)[O-]` was 443 10-6 cm/s; that for `COc1ccc(N(C(=O)CCl)C(C(=O)NCCc2ccccc2)c2cccs2)cc1Cl` (stereo not drawn) was 568 10-6 cm/s.
On to `COc1ccc(C2c3c(ncn(CCN4CCOCC4)c3=N)Oc3ccc4ccccc4c32)cc1OC` (stereo not drawn), for which the permeability Pe is 1440 10-6 cm/s.
Regarding `Cc1ccc(NC(=O)CCC(=O)N/N=C/c2ccc([N+](=O)[O-])o2)cc1C`, the permeability Pe is 37 10-6 cm/s.
On to `CCc1nnc(NC(=O)c2ccc(NS(=O)(=O)c3ccccc3)cc2)s1`, for which the permeability Pe was 163 10-6 cm/s.
As to `COc1ccccc1N(/N=C1\Sc2ccccc2C1=O)C(C)=O`, the permeability Pe was 831 10-6 cm/s.
Take `N#C/C(=C\c1ccc([N+](=O)[O-])o1)c1nc2ccccc2[nH]1`: the permeability Pe is 145 10-6 cm/s.
`COc1ccc(S(=O)(=O)N2CCN(S(=O)(=O)c3ccc4c(c3)OCCO4)CC2)cc1`: the permeability Pe is 562 10-6 cm/s.
Regarding `COc1cc(NC(=O)c2cc(C3CC3)on2)c(OC)cc1Cl`, the permeability Pe was 720 10-6 cm/s.
As to `c1ccc(CC2CCN(c3ncnc4sccc34)CC2)cc1`, the permeability Pe was 1020 10-6 cm/s.
With `Cc1cccc(-n2cnc3cc(C(=O)N4CCCCC4)ccc32)c1`, the permeability Pe was 748 10-6 cm/s.
In the case of `CN(C)c1oc(-c2ccc(OCc3ccc(Cl)cc3)cc2)nc1C#N`, the permeability Pe is 208 10-6 cm/s.
Turning to `O=C(CCNS(=O)(=O)c1cccc2nsnc12)N1CCN(c2ccccn2)CC1`, the permeability Pe is 143 10-6 cm/s.
For the compound `O=C(CSc1cccc2cccnc12)N1CCCC1`, the permeability Pe was 101 10-6 cm/s.
For the compound `c1ccc2c(Nc3nnc(-c4ccncc4)s3)cccc2c1`, the permeability Pe was 211 10-6 cm/s.
For `Cc1nc(SCc2nc3ccccc3[nH]2)c2oc3ccccc3c2n1`, the permeability Pe is 720 10-6 cm/s.
As to `CCCc1nc2c(=O)n(C)c(=O)nc-2n(C)n1`, the permeability Pe is 0 10-6 cm/s (inactive).
With `O=C(COc1ccccc1Br)NCCc1nc2ccccc2[nH]1`, the permeability Pe is 795 10-6 cm/s.
For `NC(=O)C1CCN(c2nc(-c3ccc(Br)cc3)cs2)CC1`, the permeability Pe was 284 10-6 cm/s.
Same read-out and setting: next, `CCCN1CNc2c(c(=O)[nH]c(=S)n2CCc2ccc(OC)c(OC)c2)C1`: 75 10-6 cm/s.
For `CC1CCCN(C(C(=O)Nc2ccc3c(c2)OCCO3)c2ccccc2)C1` (stereo not drawn), the permeability Pe was 2010 10-6 cm/s.
Same read-out and setting: next, `O=C1CCCC2=C1C1(CCCC1)N=C(Nc1nc3ccccc3o1)N2`: 436 10-6 cm/s; `O=c1[nH]c(SCc2ccc(Cl)cc2)nc2c1CCC2`: 631 10-6 cm/s; `COc1ccc(CSc2nc(C)cc(=O)[nH]2)cc1`: 165 10-6 cm/s.
The same measure, in the same setting: next, `CCCc1cc(C(=O)N(C2CCCCC2)C2CCCCC2)no1`: 0.01 10-6 cm/s (inactive).
For the compound `Brc1cc2c(cc1C1Nc3ccccc3C3C=CCC31)OCO2` (stereo not drawn), the permeability Pe was 37 10-6 cm/s.
As for `Cc1cc(C)nc(-n2nc(C)c(Sc3ccc(F)cc3)c2N)n1`, the permeability Pe was 1020 10-6 cm/s.
`CC(=O)c1ccc(N2CCN(S(=O)(=O)c3ccc4c(c3)CC(=O)N4)CC2)cc1`: the permeability Pe was 194 10-6 cm/s.
Regarding `CCCn1ncc(CN2CCCC(C(=O)c3cccc(OC(C)C)c3)C2)c1C` (stereo not drawn), the permeability Pe was 1310 10-6 cm/s.
As for `Cn1cnc([N+](=O)[O-])c1Sc1ncnc2nc[nH]c12`, the permeability Pe was 3 10-6 cm/s (inactive).
Same read-out and setting: the value for `COc1ccc(S(=O)(=O)n2nc(OC(=O)c3ccccc3)cc2N)cc1` was 459 10-6 cm/s; that for `Cc1cc(C(=O)CN2C(=O)CCC2=O)c(C)n1Cc1ccccc1` was 250 10-6 cm/s; that for `O=C1NCCCc2c1oc1ccc(O)cc21` was 13 10-6 cm/s.
Consider `O=S(=O)(NC1CCCCC1N1CCOCC1)c1ccc(Cl)cc1` (stereo not drawn), for which the permeability Pe is 815 10-6 cm/s.
In the case of `COc1ccc(OC)c(-c2nnc3n2N=C(c2ccc(OC)c(OC)c2)CS3)c1`, the permeability Pe was 590 10-6 cm/s.
As for `Cc1ccc(S(=O)(=O)n2c(N)nc3ccccc32)cc1`, the permeability Pe was 370 10-6 cm/s.
For `Oc1cc(O)cc(/C=C/c2ccc(O)c(O)c2)c1`, the permeability Pe is 1.2 10-6 cm/s (inactive).
As to `CCc1oc2ccccc2c1C(=O)c1cc(Br)c(O)c(Br)c1`, the permeability Pe is 71 10-6 cm/s.
With `O=C(O)c1cccnc1SCCc1ccccc1`, the permeability Pe was 17 10-6 cm/s.
Turning to `CN(C)c1nc(N)nc(CSc2nnnn2-c2cccc3ccccc23)n1`, the permeability Pe is 268 10-6 cm/s.
Turning to `CCCC(=O)Nc1cccc(NC(=O)c2ccccc2Br)c1`, the permeability Pe was 190 10-6 cm/s.
The same measure, in the same setting: next, `COc1ccc(C2CC(c3ccccc3)=NN2c2ccc(S(N)(=O)=O)cc2)cc1` (stereo not drawn): 278 10-6 cm/s.
With `Cc1ccc(N2CCN(S(=O)(=O)N3CCCCC3)CC2)c(C)c1`, the permeability Pe was 263 10-6 cm/s.
For `C/C=C/Cn1c(SCCCc2ccccc2)nc2c1c(=O)[nH]c(=O)n2C`, the permeability Pe was 1340 10-6 cm/s.
`CN1CSC(=S)N(C)C1`: the permeability Pe is 18 10-6 cm/s.
On the same count and under the same terms, next, `O=c1oc2c(O)c(O)cc3c(=O)oc4c(O)c(O)cc1c4c23`: 3.1 10-6 cm/s (inactive); `Cc1ccc(C)c(OCCn2cc(C(=O)O)c3ccccc32)c1`: 256 10-6 cm/s.
For `c1ccc(-c2nnc(N3CCOCC3)nc2-c2ccccc2)cc1`, the permeability Pe was 1490 10-6 cm/s.
Regarding `COC(=O)c1ccccc1NC(=O)c1ccc(F)cc1`, the permeability Pe was 629 10-6 cm/s.
For `O=[N+]([O-])c1ccc(CN2CCOCCOCCN(Cc3ccc([N+](=O)[O-])cc3)CCOCC2)cc1`, the permeability Pe was 1080 10-6 cm/s.
`Cc1ccnc(NC(=O)CCCOc2cc(=O)n(C)c3ccccc23)c1`: the permeability Pe is 510 10-6 cm/s.
Same read-out and setting: the value for `O=S1(=O)Nc2c(ccc3cccnc23)-c2ccccc21` was 75 10-6 cm/s.
With `COc1nc(-c2ccccc2)nnc1-c1ccccc1`, the permeability Pe was 1240 10-6 cm/s.
On to `CCCOc1ccc(-c2nc(OC)c3ccccc3n2)cc1`, for which the permeability Pe is 26 10-6 cm/s.
For `CCN1CCN(c2nc3ccccc3nc2C(C#N)C(=O)OC2CCCCC2)CC1` (stereo not drawn), the permeability Pe is 2130 10-6 cm/s.
With `N#Cc1ccccc1CSc1nc2ncc(Br)cc2[nH]1`, the permeability Pe was 144 10-6 cm/s.
On the same count and under the same terms, the value for `O=C(O)c1ccccc1OCc1ccccc1Br` was 22 10-6 cm/s; that for `COc1ccc(CNCc2cccc3ccccc23)cc1` was 1130 10-6 cm/s.
With `CCOC(=O)C(C)Oc1cccc2c(=O)n(CC(=O)Nc3ccc4c(c3)OCCO4)ccc12` (stereo not drawn), the permeability Pe is 441 10-6 cm/s.
Consider `Cc1cc2c(s1)c1cnn(Cc3ccccc3F)c(=O)c1n2C`, for which the permeability Pe was 913 10-6 cm/s.
Same read-out and setting: next, `O=C(COC(=O)C12CC3CC(CC(C3)C1)C2)NCc1ccco1`: 195 10-6 cm/s; `CCOc1ccc(-c2nc(-c3ccncc3)no2)cc1OCC`: 1030 10-6 cm/s.
`Cc1ccc(-n2c(N)c(C#N)c(-c3ccccc3)c(C#N)c2=O)cc1`: the permeability Pe was 67 10-6 cm/s.
Regarding `Cc1ccc(S(=O)(=O)NCc2ccc(C(=O)NCCN(Cc3ccccc3)C(C)C)cc2)cc1`, the permeability Pe is 1480 10-6 cm/s.
As to `CCCN(CCC)CCNC(=O)C1CCN(Cc2nc(-c3ccc(Cl)cc3)oc2C)CC1`, the permeability Pe is 1860 10-6 cm/s.
With `CCOc1ccc(NC(=S)N2CCC(C(O)(c3ccccc3)c3ccccc3)CC2)cc1`, the permeability Pe is 682 10-6 cm/s.
On to `O=C(O)c1ccc(N2C(=O)/C(=C/c3ccc(-c4ccc([N+](=O)[O-])cc4)o3)C=C2c2ccccc2)cc1`, for which the permeability Pe is < 0.8 10-6 cm/s (inactive).
Consider `CC(C)C(=O)NC(c1ccco1)c1ccc2cccnc2c1O` (stereo not drawn), for which the permeability Pe was 286 10-6 cm/s.
`COc1ccc(OC)c(S(=O)(=O)Nc2cnc3ccccc3c2)c1`: the permeability Pe is 706 10-6 cm/s.
Still for that read-out and setting: next, `Cc1cc(C)n(-c2nc(NCCCO)c3c4c(sc3n2)CCCC4)n1`: 1130 10-6 cm/s.

Staying with this series, now noted: at 100 µM; with 20% ACN; hits give high values.
As to `CN(C)C1=C(Cl)C(=O)N(c2ccc(Cl)c(Cl)c2)C1=O`, the permeability Pe is 381 10-6 cm/s.
With `Cc1ccccc1N1CCN(c2ncnc3c2cnn3Cc2ccc(Cl)cc2)CC1`, the permeability Pe was 1100 10-6 cm/s.
Same read-out and setting: next, `COc1ccc(Sc2ccc(NC(=O)c3ccccc3Cl)cc2C#N)cc1`: 487 10-6 cm/s.
Still for that read-out and setting: next, `CSc1nc(-c2ccc(C)cc2)nc(C(Cl)Cl)n1`: 154 10-6 cm/s; `COc1cccc(-c2nc(-c3ccc(NC(=O)Cc4ccccc4OC)cc3)no2)c1`: 863 10-6 cm/s; `Cc1ccc(C)c(NS(=O)(=O)c2cc(C(=O)Nc3ccccc3-c3ccccc3)ccc2Cl)c1`: 253 10-6 cm/s.
In the case of `Cc1ccc(C(=O)n2c3ccccc3c3ccccc32)cc1`, the permeability Pe was 352 10-6 cm/s.
